Tested on: Tau0N4R-TM-tGFP U2OS cells
Test: Tau phosphorylation
Conditions: 25–100 μM, 6 hrs

`c1ccc(CNc2nc(Nc3cc(C4CC4)[nH]n3)c3sccc3n2)cc1` [Compound 4, N2-benzyl-N4-(5-cyclopropyl-1H-pyrazol-3-yl)thieno[3,2-d]pyrimidine-2,4-diamine] was tested, and the “cytotoxicity in bundle formation assay” value was “cytotoxicity effects started to appear”.

Reference: paper PMC9704499 (European journal of medicinal chemistry, 2021)
